These results are taken from patent US6512102B1, “Compositions and methods of diagnosis and treatment using casein kinase I” (Chiron Corporation, priority 1998, dated 2003).

For the experiment, the system named is Lef-1 dependent transcription. In words: Lef-1 enhancer luciferase reporter assay in Cos cells. Particulars: GSK3 over-expressed / cotransfected. It counts as cell-based. The method, then:
Combinations of Wnt-1, CKIε, CKI kinase dead variant (lys→arg 38) and Lef-1 were transfected into Cos cells with a luciferase gene driven by multiple copies of Lef enhancer elements. As an internal control of transfection efficiency, the β-galactosidase gene driven by the SV40 promoter was co-transfected in all samples. 24 hours after transfection, cells were lysed and the lysate was tested for luciferase activity. The luciferase activity was normalized with respect to β-galactosidase activity. […] Dorsoanterior index (DAI) grade numbers were assigned to the phenotypes of the embryos. A grade 5 embryo is normal; a grade 3 embryo is cyclopic (one eye); a grade 1 embryo has a tail fin and somites but no head (acephalic); and a grade 0 embryo has no dorsoanterior structures (Kao et al., 1988).
The effect of CKI on Lef-1 dependent transcription in Cos mammalian cells was examined. A luciferase reporter gene driven by multiple copies of the Lef-I enhancer sequence was used. When only Wnt-I or lef-I or CKIε was transfected with the reporter construct, luciferase activity was induced only 2 to 3 fold (FIG. 1A). When Lef-1 was cotransfected with either Wnt-1 or CKIε, luciferase activity was induced 30 or 12 fold respectively.
Luciferase reporter plasmid contains multiple Lef-I enhancer sites upstream of the fos basal promoter. […]
A general note: Reporter assays use an easily measured gene product as a stand-in for the process of interest.

Turning to “GSK3: GSK3 over-expressed from cotransfected plasmid [reference compound]”, the “luciferase activity transduced by CKIε” value is on record as “inhibited the effect of CKI in promoting transcription”.
